These results are taken from BindingDB's records for patent US9457039 (Merck Sharp & Dohme Corp, 2016).

By IC50 is commonly meant the concentration that inhibits the measured activity by half.

The target in the test is T1, Genome polyprotein [2420-3010] (HCV, UniProt P26663).
T1 construct: 2420-3010
T1 sequence (P26663 2420-3010): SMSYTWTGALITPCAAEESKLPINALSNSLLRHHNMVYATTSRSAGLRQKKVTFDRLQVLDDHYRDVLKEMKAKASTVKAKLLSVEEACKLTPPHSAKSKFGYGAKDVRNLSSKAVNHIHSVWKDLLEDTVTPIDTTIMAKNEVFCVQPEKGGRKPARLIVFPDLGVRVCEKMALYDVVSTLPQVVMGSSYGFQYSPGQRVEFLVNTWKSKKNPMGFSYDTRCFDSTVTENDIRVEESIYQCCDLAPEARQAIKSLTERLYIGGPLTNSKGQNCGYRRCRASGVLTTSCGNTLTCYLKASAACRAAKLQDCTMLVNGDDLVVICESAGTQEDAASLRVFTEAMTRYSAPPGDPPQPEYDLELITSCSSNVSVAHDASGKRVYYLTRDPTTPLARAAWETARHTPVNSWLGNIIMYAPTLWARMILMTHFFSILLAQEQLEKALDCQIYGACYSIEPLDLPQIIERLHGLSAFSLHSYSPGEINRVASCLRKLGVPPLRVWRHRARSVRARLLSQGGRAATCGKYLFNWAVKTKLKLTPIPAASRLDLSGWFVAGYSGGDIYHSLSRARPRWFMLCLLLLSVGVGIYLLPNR
Kind of test: Inhibition Assay. The note with it: pH 7.3; 25 °C.
Experimental: To measure inhibition of the enzymatic activity of the HCV NS5B RNA-dependent RNA polymerase by the nucleoside triphosphate compounds of the present invention, a radiolabeled nucleotide incorporation assay was used. […] The assay was then terminated by the addition of 500 mM EDTA (50 μL). The reaction mixture was transferred to a Millipore DE81 filter plate and the incorporation of labeled CTP is determined using Packard TopCount.
The compound `C[C@@]1(N)[C@H](O)[C@@H](COP(=O)(O)OP(=O)(O)OP(=O)(O)O)O[C@H]1c1cnn2c(N)ncnc12` [US9457039, 25] had a 50% inhibitory concentration (IC50) of 51 µM.
`C[C@@]1(N=[N+]=[N-])[C@H](O)[C@@H](COP(=O)(O)OP(=O)(O)OP(=O)(O)O)O[C@H]1c1cnc2c(N)ncnn12` [US9457039, 22] showed an IC50 of 0.93 µM.
Compound `C[C@@]1(N)[C@H](O)[C@@H](COP(=O)(O)OP(=O)(O)OP(=O)(O)O)O[C@H]1c1ccc2c(N)ncnn12` [US9457039, 24] displayed an IC50 of 1.1 µM.
For `C[C@@]1(N)[C@H](O)[C@@H](COP(=O)(O)OP(=O)(O)OP(=O)(O)O)O[C@H]1c1cnc2c(N)ncnn12` [US9457039, 23] the value was 6.7 µM.
